Experimental data from US12090252B2, “Method for producing retinal tissues” (RIKEN, priority 2017, dated 2024).

What was measured:
Format in all cases: cell-based
[1] = tested on: cell aggregates containing a retinal tissue produced from human ES cells; assay: CRX:Venus, RXR-γ and NRL cell proportions in retinal tissue, about day 190 of suspension culture (immunostaining, Image J); conditions: for CRX-positive cells (CRX:Venus-positive, photoreceptor precursor) / NRL-positive cells among CRX-positive cells (rod photoreceptor precursor) / RXR-γ-positive and NRL-negative cell among CRX-positive cells (cone photoreceptor precursor): about day 190 (day 188-193), T3 60 nM day 38-130, BMP4 0.15 nM or Cyclopamine-KAAD 500 nM day 22-100
Experimental: (§1) A cell aggregate containing a retinal tissue in an initial developmental stage was prepared by the method described in “Kuwahara et al. Nat Commun 2015, 19(6), 6286-” after modification in part. That is, the aforementioned cultured ES cells were individually dispersed using TRYPLE™ Express cell dispersion solution (Invitrogen), and the individually dispersed human ES cells were suspended in 100 μL of a serum-free medium in a cell non-adhesive 96 well culture plate (SUMILON spheroid plate, SUMITOMO BAKELITE CO., LTD.) at 9×10^3 cells per well to allow rapid formation of aggregates, after which they were cultured at 37° C., 5% CO2. As the serum-free medium therefor, a serum-free medium obtained by adding 10% KSR, 450 μM 1-monothioglycerol, 1× Chemically defined lipid concentrate, 5 mg/mL BSA, 20 μM Y27632 to a 1:1 mixture of F-12 medium and IMDM medium was used. At 6 days after the start of suspension culture, BMP4 at a final concentration of 1.5 nM was added and suspension culture was continued. A half amount of the culture medium in the well was exchanged with the above-mentioned medium not supplemented with a BMP signal transduction pathway agonist every 3 or 4 days. A cell aggregate containing a retinal tissue at day 18 from the start of suspension culture was cultured in suspension in a serum-free medium (DMEM/F12 medium supplemented with 1% N2 supplement) containing 3 μM CHIR99021 and 5 μM SU5402 for 4 days, namely, up to day 22 from the start of suspension culture. Thereafter, suspension culture of the cell aggregate containing the retinal tissue was continued until it was appropriately used for analysis and the like. As the culture medium during this period, serum-containing media shown in the following to [3] were used and the cell aggregate was cultured under 5% CO2 conditions. • [1] day 22 to day 38 from the start of suspension culture; DMEM/F12 medium supplemented with 10% fetal calf serum, 1% N2 supplement, and 100 μM taurine (hereinafter to be referred to as medium A). • [2] day 38 to day 60 from the start of suspension culture; a 1:3 mixed medium of medium A, and Neurobasal medium supplemented with 10% fetal calf serum, 2% B27 supplement, […], and 100 μM taurine (hereinafter to be referred to as medium B). • [3] after day 60 or later from the start of suspension culture: medium B.
The cell aggregates containing a retinal tissue shown in Example 6 were prepared by respectively adding T3 or dorsalization signal transmitter (BMP4 or Cyclopamine-KAAD) as follows in the method described in Example 1. • [1]-T3 group (FIG. 6a, FIG. 6e, FIG. 6i, FIG. 6m); using the culture medium described in Example 1, culture was performed without addition up to day 191 from the start of suspension culture. • [2] +T3 group (FIG. 6b, FIG. 6f, FIG. 6j, FIG. 6n); using the culture medium described in Example 1, 60 nM T3 was further added from day 38 to day 130 from the start of suspension culture, and thereafter cultured up to day 192 from the start of suspension culture. From day 130 to day 192, medium described in Example 1 was used. • [3] +T3+BMP group (FIG. 6c, FIG. 6g, FIG. 6k, FIG. 6o); using the culture medium described in Example 1, 0.15 nM BMP4 was further added from day 22 to day 100 from the start of suspension culture, 60 nM T3 was added from day 38 to day 130 from the start of suspension culture, and thereafter cultured up to day 188 from the start of suspension culture. From day 130 to day 188, medium described in Example 1 was used. • [4] +T3+Cyclopamine-KAAD group (FIG. 6d, FIG. 6h, FIG. 6l, FIG. 6p); using the culture medium described in Example 1, 500 nM Cyclopamine-KAAD was further added from day 22 to day 100 from the start of suspension culture, 60 nM T3 was added from day 38 to day 130 from the start of suspension culture, and thereafter cultured up to day 193 from the start of suspension culture. From day 130 to day 193, medium described in Example 1 was used.

[2] = tested on: cell aggregates containing a retinal tissue produced from human ES cells; assay: CRX:Venus green fluorescence of cell aggregates under a fluorescent microscope, day 69-74; conditions: T3 vs −T3 group
Experimental: A cell aggregate containing a retinal tissue in an initial developmental stage was prepared by the method described in “Kuwahara et al. Nat Commun 2015, 19(6), 6286-” after modification in part. That is, the aforementioned cultured ES cells were individually dispersed using TRYPLE™ Express cell dispersion solution (Invitrogen), and the individually dispersed human ES cells were suspended in 100 μL of a serum-free medium in a cell non-adhesive 96 well culture plate (SUMILON spheroid plate, SUMITOMO BAKELITE CO., LTD.) at 9×10^3 cells per well to allow rapid formation of aggregates, after which they were cultured at 37° C., 5% CO2. As the serum-free medium therefor, a serum-free medium obtained by adding 10% KSR, 450 μM 1-monothioglycerol, 1× Chemically defined lipid concentrate, 5 mg/mL BSA, 20 μM Y27632 to a 1:1 mixture of F-12 medium and IMDM medium was used. At 6 days after the start of suspension culture, BMP4 at a final concentration of 1.5 nM was added and suspension culture was continued. A half amount of the culture medium in the well was exchanged with the above-mentioned medium not supplemented with a BMP signal transduction pathway agonist every 3 or 4 days. […]

[3] = tested on: cell aggregates containing a retinal tissue produced from human ES cells; assay: PAX6/CHX10 cell proportions in retinal tissue, about day 190 of suspension culture (immunostaining, Image J); conditions: for PAX6-negative/CHX10-strongly positive cells (bipolar cells) / PAX6-strongly positive/CHX10-negative cells (any of ganglion cell, amacrine cell, horizontal cell): about day 190 (day 188-191), T3 60 nM day 38-130, BMP4 0.15 nM or Cyclopamine-KAAD 500 nM day 22-100; for PAX6-strongly positive/CHX10-negative cell and PAX6-negative/CHX10-strongly positive cell, observation with fluorescent microscope: day 188-191, groups added with T3 compared to groups with no addition
Experimental: as §1
The cell aggregates containing a retinal tissue shown in Example 5 were prepared by respectively adding T3 or dorsalization signal transmitter as follows in the method described in Example 1. • [1]-T3 group (FIG. 5a, FIG. 5g, FIG. 5m); using the culture medium described in Example 1, culture was performed without addition up to day 191 from the start of suspension culture. • [2] +T3 group (FIG. 5b, FIG. 5h, FIG. 5n); using the culture medium described in Example 1, 60 nM T3 was further added from day 38 to day 130 from the start of suspension culture, and thereafter cultured up to day 188 from the start of suspension culture. From day 130 to day 188, medium B described in Example 1 was used. • [3] +BMP group (FIG. 5c, FIG. 5i, FIG. 5o); using the culture medium described in Example 1, 0.15 nM BMP4 was further added from day 22 to day 100 from the start of suspension culture, and thereafter cultured up to day 191 from the start of suspension culture. From day 100 to day 191, medium described in Example 1 was used. • [4] +T3+BMP group (FIG. 5d, FIG. 5j, FIG. 5p); using the culture medium described in Example 1, 0.15 nM BMP4 was further added from day 22 to day 100 from the start of suspension culture, 60 nM T3 was added from day 38 to day 130 from the start of suspension culture, and thereafter cultured up to day 188 from the start of suspension culture.

[4] = tested on: cell aggregates containing a retinal tissue produced from human ES cells; assay: CRX-positive cells in neural retinal tissue, day 100-105 of suspension culture (immunostaining, Image J)
Experimental: A cell aggregate containing a retinal tissue in an initial developmental stage was prepared by the method described in “Kuwahara et al. Nat Commun 2015, 19(6), 6286-” after modification in part. That is, the aforementioned cultured ES cells were individually dispersed using TRYPLE™ Express cell dispersion solution (Invitrogen), and the individually dispersed human ES cells were suspended in 100 μL of a serum-free medium in a cell non-adhesive 96 well culture plate (SUMILON spheroid plate, SUMITOMO BAKELITE CO., LTD.) at 9×10^3 cells per well to allow rapid formation of aggregates, after which they were cultured at 37° C., 5% CO2. As the serum-free medium therefor, a serum-free medium obtained by adding 10% KSR, 450 μM 1-monothioglycerol, 1× Chemically defined lipid concentrate, 5 mg/mL BSA, 20 μM Y27632 to a 1:1 mixture of F-12 medium and IMDM medium was used. At 6 days after the start of suspension culture, BMP4 at a final concentration of 1.5 nM was added and suspension culture was continued. A half amount of the culture medium in the well was exchanged with the above-mentioned medium not supplemented with a BMP signal transduction pathway agonist every 3 or 4 days. A cell aggregate containing a retinal tissue at day 18 from the start of suspension culture was cultured in suspension in a serum-free medium (DMEM/F12 medium supplemented with 1% N2 supplement) containing 3 μM CHIR99021 and 5 μM SU5402 for 4 days, namely, up to day 22 from the start of suspension culture. Thereafter, suspension culture of the cell aggregate containing the retinal tissue was continued until it was appropriately used for analysis and the like. […]

[5] = tested on: cell aggregates containing a retinal tissue produced from human ES cells; assay: CRX-positive and TRβ2-positive cells in retinal tissue, about day 70 of suspension culture (immunostaining, Image J); conditions: for CRX-positive and TRβ2-positive cells (cone photoreceptor precursor) / CRX-positive cells (photoreceptor precursor) contained in retinal tissue: about day 70 (day 71-75) from start of suspension culture, T3 60 nM from day 38, BMP4 0.15 nM or Cyclopamine-KAAD 500 nM from day 22
Experimental: as §1
The cell aggregates containing a retinal tissue shown in Example 4 were prepared by respectively adding T3 or dorsalization signal transmitter (BMP4) as follows in the method described in Example 1. • [1]-T3 group (FIG. 4a, FIG. 4e, FIG. 4i); using the culture medium described in Example 1, culture was performed without addition up to day 75 from the start of suspension culture. • [2] +T3 group (FIG. 4b, FIG. 4f, FIG. 4j); using the culture medium described in Example 1, 60 nM T3 was further added from day 38 from the start of suspension culture to the completion of suspension culture, and cultured up to day 71 from the start of suspension culture. • [3] +T3+BMP group (FIG. 4c, FIG. 4g, FIG. 4k); using the culture medium described in Example 1, 0.15 nM BMP4 and 60 nM T3 were further added respectively from day 22, day 38 from the start of suspension culture to the completion of suspension culture, and cultured up to day 71 from the start of suspension culture. • [4] +T3+Cyclopamine-KAAD group (FIG. 4d, FIG. 4h, FIG. 4l); using the culture medium described in Example 1, 500 nM Cyclopamine-KAAD and 60 nM T3 were further added respectively from day 22, day 38 from the start of suspension culture to the completion of suspension culture, and cultured up to day 71 from the start of suspension culture.
After fixing cell aggregates containing retinal tissue cultured under the above conditions with 4% para-formaldehyde, cryosections were prepared and subjected to immunostaining using CRX, TRβ2(TRb2) antibody, or DAPI staining for staining the cell nucleus.

[6] = day 188-193, compared to −T3 group
[7] = day 71-75, T3 vs −T3 group, combinations vs +T3 group

Row | SMILES | CRX-positive cells (CRX:Venus-positive, photoreceptor precursor) [1] [%] | NRL-positive cells among CRX-positive cells (rod photoreceptor precursor) [1] [%] | RXR-γ-positive and NRL-negative cell among CRX-positive cells (cone photoreceptor precursor) [1] [%] | RXR-γ-positive and NRL-negative cone photoreceptor precursor among CRX:Venus-positive photoreceptor precursors, observation [1, 6] | proportion of photoreceptor precursor among the cells contained in the retinal tissue, observation [1, 6] | green fluorescence shown by knocked-in CRX:Venus ([2]; day 69-74, T3 60 nM from day 38, BMP4 0.15 nM or Cyclopamine-KAAD 500 nM from day 22, combinations vs +T3 group) | green fluorescence shown by knocked-in CRX:Venus, in the presence of 9-cis retinoic acid ([2]; day 74, 100 nM 9-cis retinoic acid and 60 nM T3 from day 38, BMP4 0.45 nM from day 22, combination vs +T3 group) | PAX6-negative/CHX10-strongly positive cells (bipolar cells) [3] [%] | PAX6-strongly positive/CHX10-negative cells (any of ganglion cell, amacrine cell, horizontal cell) [3] [%] | PAX6-strongly positive/CHX10-negative cell and PAX6-negative/CHX10-strongly positive cell, observation with fluorescent microscope [3] | proportion of CRX-positive cells contained in the neural retinal tissue ([4]; T3 60 nM from day 38, BMP4 0.15 nM or Cyclopamine-KAAD 500 nM day 22-100) [%] | CRX-positive cell (photoreceptor precursor), observation ([4]; compared to −T3 group) | ectopic photoreceptor precursors in neuroblastic layer and ganglion cell layer ([4]; observation) | CRX-positive and TRβ2-positive cells (cone photoreceptor precursor) [5] [%] | CRX-positive cells (photoreceptor precursor) contained in retinal tissue [5] [%] | CRX-positive cell (photoreceptor precursor), observation with fluorescence microscope [5, 7] | cone photoreceptor precursors (CRX-positive cell that expresses TRβ2), observation [5, 7] | ectopic CRX-positive cell in region on the basement membrane side from neuroblastic layer ([5]; day 71-75, observation with fluorescence microscope)
1 | N[C@@H](Cc1cc(I)c(Oc2ccc(O)c(I)c2)c(I)c1)C(=O)O [T3, triiodothyronine] | 53.4 | 9.4 | 44.1 | increased | markedly high | observed more | observed more | 4.29 | 13.83 | markedly decreased | 30.0 | remarkably increased | ectopic photoreceptor precursors are contained | 11.3 | 22.8 | found more | found in a greater number | found at the same level as in the apical surface
2 | CC1=C2C[C@H]3[C@@H](CC=C4CC(=O)CC[C@@]43C)[C@@H]2CC[C@]12O[C@@H]1C[C@H](C)CN(CCNC(=O)CCCCCNC(=O)CCc3ccccc3)[C@H]1[C@H]2C [Cyclopamine-KAAD] | 41.7 | 11.5 | 30.2 | – | – | – | – | 8.65 | 24.50 | many | – | – | – | 8.1 | 14.1 | – | – | –
